# Measurements from publication PMC6017749, “Exploring N-acyl-4-azatetracyclo[5.3.2.0^2,6.0^8,10]dodec-11-enes as 11β-HSD1 Inhibitors” (Molecules : A Journal of Synthetic Chemistry and Natural …, 2018).
# Several values for one entry are separate records, joined by “and”; a condition that tells them apart may be missing. Equal values may be shown once.
# Columns and labels:
# [1] = target: T1, human 11β-HSD2 (Homo sapiens, UniProt P80365); assay: Cellular 11β-HSD2 enzyme inhibition assay (HEK293 stably transfected); assay type: cell-based; conditions: for inhibition at 10 µM: HEK293, 10 µM, read-out: HEK hHSD2 % inh at 10 µM
# T1 construct: stably transfected with the full-length gene coding for human 11β-HSD2; expressed in transfected cells; host or cells: HEK293
# T1 sequence (P80365 1-405): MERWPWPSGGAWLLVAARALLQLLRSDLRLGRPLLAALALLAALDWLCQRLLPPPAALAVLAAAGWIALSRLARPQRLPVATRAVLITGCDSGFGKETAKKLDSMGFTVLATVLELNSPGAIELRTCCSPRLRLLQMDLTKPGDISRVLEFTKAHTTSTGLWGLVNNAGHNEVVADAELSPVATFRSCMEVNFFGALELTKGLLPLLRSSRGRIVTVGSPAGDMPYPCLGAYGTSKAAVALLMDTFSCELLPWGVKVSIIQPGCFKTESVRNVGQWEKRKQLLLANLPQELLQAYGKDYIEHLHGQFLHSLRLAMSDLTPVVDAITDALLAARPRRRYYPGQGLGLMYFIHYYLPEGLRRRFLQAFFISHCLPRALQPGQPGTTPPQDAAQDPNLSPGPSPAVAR
# Procedure: (§1) Selectivity over 11β-HSD2 was also assessed in a cell-based assay using the same methodology as before (HEK293 stably transfected with the 11β-HSD2 gene). […] Finally, metabolic stability was determined using HLM, which are widely used to predict the degree of primary metabolic clearance in the liver. Each compound was incubated over 30 min with HLM and the percentage of remaining compound after this incubation period was determined by calculating compound concentration after and before by LC/MS.
# For measurement of inhibition of 11β-HSD2, HEK293 cells stably transfected with the full-length gene coding for human 11β-HSD2 were used. The protocol was the same as for the cellular 11β-HSD1 enzyme inhibition assay, only changing the substrate, this time cortisol, and the concentrations of the tested compounds, 10, 1, and 0.1 µM. Reported values are the average of 1–3 measurements.
# [2] = target: T2, human 11β-HSD1 (Homo sapiens, UniProt P28845); assay: 11β-HSD1 enzyme inhibition assay in human liver microsomes (3H-cortisone to 3H-cortisol, SPA); assay type: biochemical; conditions: for inhibition at 10 µM: read-out: hHSD1 % inh at 10 µM; for IC50: read-out: hHSD1 IC50
# T2 construct: The assay uses human liver microsomes (HLM), where the enzyme is expressed; tissue Celsis In-vitro Technologies; host or cells: mixed sex human liver microsomes
# Procedure: A preliminary screen was performed using a human microsome assay with compounds at 10 µM in order to assess their potential inhibition of the target enzyme (Table 2). Percentage of inhibition was determined by measuring the conversion of ^3H-cortisone to ^3H-cortisol by capturing liberated ^3H-cortisol on anti-cortisol (HyTest Ltd., Turku, Finland)-coated scintillation proximity assay beads. The assay uses human liver microsomes (HLM), where the enzyme is expressed, and NADPH as the cofactor needed by the enzyme. Eight of the thirteen new compounds presented 100% inhibition of the human 11β-HSD1 in this single concentration assay, so dose-response curves were performed to get their IC50 values.
# 11β-HSD1 activity was determined in mixed sex, human liver microsomes (HLM, Celsis In-vitro Technologies) by measuring the conversion of ^3H-cortisone to ^3H-cortisol. Percentage inhibition was determined relative to a no inhibitor control. An amount of 5 μg of HLM were pre-incubated at 37 °C for 15 min with inhibitor and 1 mM NADPH in a final volume of 90 μL Krebs buffer. 10 μL of 200 nM ^3H-cortisone was then added followed by incubation at 37 °C for a further 30 min. The assay was terminated by rapid freezing on dry ice and ^3H-cortisone to ^3H-cortisol conversion determined in 50 μL of the defrosted reaction by capturing liberated ^3H-cortisol on anti-cortisol (HyTest Ltd)-coated scintillation proximity assay beads (protein A-coated YSi, GE Healthcare). Reported values are the average of 1–3 measurements. A nanomolar 11β-HSD1 inhibitor, UE2316, was added as a positive control within in each set of assays.
# [3] = Microsomal stability assay in human liver microsomes; assay type: in vitro ADME; conditions: remaining compound after 30-min incubation in HLM
# Procedure: as §1
# The microsomal stability of each compound was determined using human liver microsomes (HLM, Celsis In-vitro Technologies, Baltimore, MD, USA). Microsomes were thawed and diluted to a concentration of 2 mg/mL in 50 mM sodium phosphate buffer pH 7.4. Each compound was diluted in 4 mM NADPH (made in the phosphate buffer above) to a concentration of 10 µM. Two identical incubation plates were prepared to act as a 0 min and a 30 min time point assay. 30 µL of each compound dilution was added in duplicate to the wells of a U-bottom 96-well plate and warmed at 37 °C for approximately 5 min. Verapamil, lidocaine, and propranolol at 10 µM concentration were utilized as reference compounds in this experiment. Microsomes were also pre-warmed at 37 °C before the addition of 30 µL to each well of the plate resulting in a final concentration of 1 mg/mL. The reaction was terminated at the appropriate time point (0 or 30 min) by addition of 60 µL of ice-cold 0.3 M trichloroacetic acid (TCA) per well. The plates were centrifuged for 10 min at 112× g and the supernatant fraction transferred to a fresh U-bottom 96-well plate. Plates were sealed and frozen at −20 °C prior to MS analysis. LC-MS/MS was used to quantify the peak area response of each compound before and after incubation with HLM using MS tune settings established and validated for each compound. These peak intensity measurements were used to calculate the percentage remaining after incubation with HLM for each hit compound. Reported values are the average of 1–3 measurements.
# [4] = target: T2, human 11β-HSD1; assay: Cellular 11β-HSD1 enzyme inhibition assay (HEK293 stably transfected, cortisol by LC/MS); assay type: cell-based; conditions: for inhibition at 10 µM: HEK293 transfected with human 11β-HSD1, read-out: HEK hHSD1 % inh at 10 µM; for HEK hHSD1 % inh at 10 µM: HEK293 transfected with human 11β-HSD1
# Procedure: Those compounds with submicromolar IC50 values (4, 6, 8, 9 and 16) were further evaluated in terms of cellular potency, selectivity over 11β-HSD2, and metabolic stability as follows (Table 2, 5th, 6th, and 7th column, respectively). Cellular potency was assessed using Human Embryonic Kidney 293 (HEK293) cells stably transfected with the 11β-HSD1 gene. Cells were incubated with substrate (cortisone) and percentage of inhibition was determined by measuring the conversion of cortisone to cortisol by LC/MS. The results were in line with the previous results obtained in the microsomal assay.
# The cellular 11β-HSD1 enzyme inhibition assay was performed using HEK293 cells stably transfected with the human 11β-HSD1 gene. Cells were incubated with substrate (cortisone) and product (cortisol) was determined by LC/MS. Cells were plated at 2 × 10^4 cells/well in a 96-well poly-D-lysine coated tissue culture microplate (Greiner Bio-one, Monroe, NC, USA) and incubated overnight at 37 °C in 5% CO2 […]. Compounds to be tested were solubilized in 100% dimethylsulfoxide (DMSO) at 10 mM and serially diluted in water and 10% DMSO to final concentration of 10 µM in 10% DMSO. Then 10 µL of each test dilution and 10 µL of 10% DMSO (for low and high control) were dispensed into the well of a new 96-well microplate (Greiner Bio-one). Medium was removed from the cell assay plate and 100 µL of Dulbecco’s Modified Eagle’s Medium DMEM solution (containing 1% penicillin, 1% streptomycin and 300 nM cortisone) added to each well. Cells were incubated for 2 h at 37 °C in 5% CO2 […]. Following incubation, medium was removed from each well into an Eppendorf containing 500 µL of ethyl acetate, mixed by vortex and incubated at r.t. for 5 min. A calibration curve of known concentrations of cortisol in assay medium was also set up and added to 500 µL of ethyl acetate, vortexed and incubated as above. The supernatant of each Eppendorf was removed to a 96-deep-well plate and dried down under […] at 65 °C. Each well was solubilized in 100 µL 70:30 H2O:acetonitrile (ACN) and removed to a 96-well V-bottomed plate for LC/MS analysis. Separation was carried out on a Sunfire 150 × 2.1 mm, […] column using a H2O:ACN gradient profile. Typical retention times were 2.71 min for cortisol and 2.80 min for cortisone. The peak area was calculated and the concentration of each compound determined from the calibration curve. Reported values are the average of 1–3 measurements.
# [5] = HEK293 transfected with human 11β-HSD2
# [6] = 10 µM, human liver microsomes, relative to no inhibitor control
# T2 sequence (P28845 whole entry): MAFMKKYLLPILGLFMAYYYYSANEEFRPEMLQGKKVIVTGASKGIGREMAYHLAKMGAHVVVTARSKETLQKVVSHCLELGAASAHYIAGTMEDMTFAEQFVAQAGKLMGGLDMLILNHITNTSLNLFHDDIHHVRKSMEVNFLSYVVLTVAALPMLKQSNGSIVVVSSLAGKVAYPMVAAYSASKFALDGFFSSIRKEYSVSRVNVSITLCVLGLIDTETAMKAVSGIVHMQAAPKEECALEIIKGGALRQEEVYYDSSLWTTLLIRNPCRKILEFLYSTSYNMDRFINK
SMILES,"inhibition at 10 µM [1, 5]","inhibition at 10 µM [2, 6]",IC50 ([2]; human liver microsomes),HLM % Parent [3],melting point,inhibition at 10 µM [4],further results
"CC(C)(C)C(=O)N1CC2C3C=CC(C4CC34)C2C1 (stereo not shown) [Compound 6, (4-Azatetracyclo[5.3.2. 0^2,6.0^8,10]dodec-11-en-4-yl)(tert-butyl)methanone]",71%,100%,0.666 µM,60%,91 to 92 °C,41%,–
"O=C(c1cccs1)N1CC2C3C=CC(C4CC34)C2C1 (stereo not shown) [Compound 7, (4-Azatetracyclo[5.3.2.0^2,6.0^8,10]dodec-11-en-4-yl)(thien-2-yl)methanone]",–,< 50%,–,–,104 to 105 °C,–,"hHSD1 % inh at 10 µM [2, 6]: 49%"
"O=C(C1CC=CCC1)N1CC2C3C=CC(C4CC34)C2C1 (stereo not shown) [Compound 9, (4-Azatetracyclo[5.3.2. 0^2,6.0^8,10]dodec-11-en-4-yl)(cyclohex-3-en-1-yl)methanone]",87%,100%,0.056 µM,44%,78 to 79 °C,100%,HEK hHSD1 % inh at 10 µM [4]: complete inhibition
"O=C(c1ccnc(Cl)c1)N1CC2C3C=CC(C4CC34)C2C1 (stereo not shown) [Compound 11, (4-Azatetracyclo[5.3.2. 0^2,6.0^8,10]dodec-11-en-4-yl)(2-chloropyridin-4-yl)methanone]",–,–,–,–,135 to 136 °C,–,–
"N#Cc1ccc(N2CCN(c3ccc(C(=O)N4CC5C6C=CC(C7CC67)C5C4)cn3)CC2)cc1 (stereo not shown) [Compound 16, 4-[[4-[5-(4-Azatetracyclo[5.3.2. 0^2,6.0^8,10]dodec-11-en-4-yl)carbonyl]pyridin-2-yl]piperazin-1-yl]benzonitrile]",54%,100%,0.377 µM,13%,160 to 161 °C,100%,"HEK hHSD2 % inh at 10 µM ([1]; 10 µM, HEK293 transfected with human 11β-HSD2): 53%; selectivity index over 11β-HSD2 ([1]; 11β-HSD2 IC50 versus 11β-HSD1 IC50): 30 fold; IC50 ([1]; inferred from 54% inhibition at 10 µM in HEK293 cells, read-out: IC50 against 11β-HSD2): ~10 µM; HEK hHSD1 % inh at 10 µM [4]: complete inhibition"
"CC(=O)N1CCC(C(=O)N2CC3C4C=CC(C5CC45)C3C2)CC1 (stereo not shown) [Compound 13, 1-[[4-(4-Azatetracyclo[5.3.2. 0^2,6.0^8,10]dodec-11-en-4-yl)carbonyl]piperidin-1-yl]ethan-1-one]",–,–,–,–,134 to 135 °C,–,–
"CN1CCC(C(=O)N2CC3C4C=CC(C5CC45)C3C2)CC1 (stereo not shown) [Compound 12, (4-Azatetracyclo[5.3.2. 0^2,6.0^8,10]dodec-11-en-4-yl)(1-methylpiperidin-4-yl)methanone]",–,–,–,–,100 to 101 °C,–,–
"O=C(c1csc(-c2cn[nH]c2)c1)N1CCC(F)(c2ccccc2Cl)CC1 [UE2316, reference compound]",–,–,–,–,–,–,"IC50 of positive control ([2]; positive control within each set of assays, normal range per ref 20): within the normal range"
"O=C(c1ccccn1)N1CC2C3C=CC(C4CC34)C2C1 (stereo not shown) [Compound 5, (4-Azatetracyclo[5.3.2.0^2,6.0^8,10]dodec-11-en-4-yl)(pyridin-2-yl)methanone]",–,100%,4.3 µM and 4.27 µM,–,110 to 111 °C,–,–

# Second part, led by results:
"inhibition at 10 µM [1, 5]","inhibition at 10 µM [2, 6]",IC50 ([2]; human liver microsomes),HLM % Parent [3],melting point,inhibition at 10 µM [4],SMILES,further results
–,100%,5.44 µM,–,90 to 91 °C,–,"O=C(c1ccc(N2CCN(c3ccccc3)CC2)nc1)N1CC2C3C=CC(C4CC34)C2C1 (stereo not shown) [Compound 14, (4-Azatetracyclo[5.3.2.0^2,6.0^8,10]dodec-11-en-4-yl)[6-(4-phenylpiperazin-1-yl)pyridin-3-yl]methanone]",–
–,100%,11.6 µM,–,157 to 158 °C,–,"O=C(c1ccc(N2CCN(c3ccc(C(F)(F)F)cc3)CC2)nc1)N1CC2C3C=CC(C4CC34)C2C1 (stereo not shown) [Compound 15, (4-Azatetracyclo[5.3.2.0^2,6.0^8,10]dodec-11-en-4-yl)[6-[4-(4-trifluoromethyl)phenylpiperazin-1-yl]pyridin-3-yl]methanone]",–
–,–,–,–,101 to 102 °C,–,"O=C(c1ccc(Cl)nc1)N1CC2C3C=CC(C4CC34)C2C1 (stereo not shown) [Compound 10, (4-Azatetracyclo[5.3.2. 0^2,6.0^8,10]dodec-11-en-4-yl) (6-chloropyridin-3-yl)methanone]",–
84%,100%,0.546 µM,85%,65 to 66 °C,77%,"O=C(c1ccccc1)N1CC2C3C=CC(C4CC34)C2C1 (stereo not shown) [Compound 4, (4-Azatetracyclo[5.3.2.0^2,6.0^8,10]dodec-11-en-4-yl)(phenyl)methanone]",–
